In the METLIN SMRT retention time set (Domingo-Almenara et al. 2019):

Test: gradient 5% acetonitrile 3 min, to 50% in 2 min, to 85% in 15 min, held 3 min, 100 µL/min
Conditions: column: Zorbax Extend-C18 2.1 x 50 mm; eluents: water / acetonitrile, 0.1% formic acid
Summary of the method: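 Using water and acetonitrile that each contained 0.1% formic acid, mixtures of ~100 pure standards were separated at 100 μL/min on a Zorbax Extend-C18 column (2.1 × 50 mm, 1.8 μm). The HPLC fed a quadrupole time-of-flight mass spectrometer working in positive and negative ionization mode, with dead and dwell volumes of 40 μL and 900 μL. Data were acquired over 3 months. Retention time was read from computationally picked adduct peaks after manual inspection of each.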

RP-LC retention time | Compound
1150 s | Cc1ccc(S(=O)(=O)N2CCc3nc(-c4ccc(Cl)cc4)ncc3C2)cc1
1030 s | COc1ccc(-c2nnc(-c3ccc(C)c(S(=O)(=O)N4CCCC4)c3)o2)cc1
1080 s | COC(=O)c1c(C)c(C(=O)C(C)N(CC(C)C)C(=O)c2ccc(Cl)cc2)c(C)n1C (configuration not stated)
1260 s | CCc1cc(C(=O)Nc2cc(OC)ccc2OC)nc2cc(-c3ccco3)nn12
1080 s | Oc1ccc(Br)cc1-c1nc2ncccn2c1Nc1cccc(C(F)(F)F)c1
646 s | CCc1ccccc1NC(=O)N1CC(Cc2nncn2C(C)C)C1
637 s | O=C(Nc1ccc2c(c1)OCCO2)N1CCCC(Cn2cnc3cccnc32)C1 (configuration not stated)
1140 s | O=C(c1ccc(Br)o1)N1CCN(c2nc3ccccc3nc2C(F)(F)F)CC1
1040 s | CC1CCN(S(=O)(=O)c2ccc(-c3nnc(C(=O)N4CCCCC4)o3)cc2)CC1
1040 s | O=C(Nc1cccc(F)c1)C1CCN(S(=O)(=O)c2cc(-c3noc(C4CC4)n3)cs2)CC1
705 s | CCn1cc(CCNC(=O)Nc2cc(C)cc(C)c2)c2cccnc21
666 s | CCOC(=O)C1CCCN(C(=O)C2CCN(c3cc(N4CCCCC4)ncn3)CC2)C1 (configuration not stated)
732 s | CCc1ccccc1NC(=O)CSc1nc2nc(C)cc(C)n2n1
552 s | CC(C)CNC(=O)C(=O)NCc1ccccn1
602 s | COCc1ncc(C)n1C1CCN(C(=O)c2ccc(Cc3c(C)noc3C)o2)C1 (configuration not stated)
1120 s | Cn1nccc1-c1cccc(-c2noc(-c3ccc(F)cc3F)n2)c1
709 s | CCOc1ccc(CNC(=O)C2CCCN(c3cc(=O)n(C)c(=O)n3C)C2)cc1 (configuration not stated)
976 s | CCOc1ccc(NC(=O)c2cc(C)n3nc(C)cc3n2)cc1

RP-LC retention time | Compound
1210 s | COc1ccccc1NC(=O)c1c(O)c2cccnc2n(-c2cccc(F)c2)c1=O
679 s | CC(NC(=O)Cc1cn(C)c2ncccc12)c1ccccc1 (configuration not stated)
640 s | CCCNC(=O)C1CCCN(c2nc3ncn(CC(=O)Nc4ccc5c(c4)OCO5)c(=O)c3s2)C1 (configuration not stated)
896 s | COc1ccc(-c2nc3cnccn3c2Nc2ccc(Cl)cc2)cc1
710 s | Cc1oc(-c2[nH]ncc2C(=O)N2CCCCC2)cc1S(=O)(=O)Nc1cccc(F)c1
1070 s | COc1ccc(N2CCN(S(=O)(=O)c3cc(-c4nc(C)cs4)cs3)CC2)cc1
703 s | Cc1ccc(NC(=O)Cn2nc3n(c2=O)CCCCC3)c(C)c1
978 s | Clc1ccccc1-c1noc(Cc2nnc(-c3ccccc3)o2)n1
898 s | CCN1C(=O)c2cccnc2Sc2cc(NC(=O)Cc3ccccc3C)ccc21
711 s | O=C(Cn1cccc1-c1nc(-c2ccc(Cl)cc2)cs1)NCCN1CCOCC1
806 s | CCCC(=O)Nc1nc(-c2ccc3c(c2)NC(=O)C(C)O3)cs1 (configuration not stated)
672 s | CC(C)n1c(CCNC(=O)Cc2ccc(F)cc2)nc2cccnc21
621 s | CC(=O)Nc1ccc(-n2c(C)nc3ccccc3c2=O)cc1C
948 s | C[C@]12CC[C@H](O)CC1=CCC1C2CC[C@]2(C)C(n3cnc4ccccc43)=CCC12 (some centres not stated)
708 s | CCCCN1C(=O)C(CC(=O)N2CCOCC2)Sc2ncccc21 (configuration not stated)
1030 s | CCOc1ccc(NC(=O)c2cnn(-c3ccc(Br)cc3)c2)cc1
784 s | CCNS(=O)(=O)c1cc(-c2csc(C)n2)ccc1OC
976 s | Cc1ccc(NC(=O)Cn2nc3cc(-c4ccccc4)nc(C)n3c2=O)cc1F

Compound | RP-LC retention time
COc1ccc2c(c1)C1(CCN(C(=O)CCc3ccccc3)C1)C(=O)N2 (configuration not stated) | 728 s
